Patent publication US11613526B2, “Thiophene derivatives” (priority 2018, dated 2023)

Assays:
[1] = target: T1, interaction of the PAS B domains of HIF-2α and HIF-1β (Homo sapiens, UniProt Q99814); assay: Alphascreen protein protein interaction assay; assay type: biochemical
T1 construct: His6Gb1-TEV-GEFKGL-HIF2α (240-350aa)-G
Procedure: Alphascreen Protein Protein Interaction Assay:
For the assessment of functional disruption of the interaction of the PAS B domains of HIF-2α and HIF-1β an AlphaScreen assay was set-up. The assay was performed in 384 well light gray Perkin Elmer microtiter plates in a total volume of 7 μl. […] The detection of the protein protein interaction was performed by adding AlphaLISA® Anti-FLAG Acceptor beads (fc 20 μg/ml) and AlphaScreen® Nickel Chelate Donor beads (fc 9 μg/ml) (both Perkin Elmer) and the reaction was incubated for 240 min at 23° C. in the dark. If donor and acceptor beads get in close proximity to each other caused by interaction of HIF2alpha PAS B with HIF-1ß PAS B domain it results in a luminescence signal at 615 nm after excitation at 680 nm. The PPI disruption activity of a compound was calculated directly from the loss in Alphascreen signal. The AlphaScreen signal was measured with an Envision multimode reader (Perkin Elmer LAS Germany GmbH). The control value used was the inhibitor-free reaction. The pharmacological zero value used was determined in the absence of HIF-11. The inhibitory values (IC50) were calculated using Assay analyser from GeneData.

[2] = system: HIF2α-HIF1β activity in 786-O HRE-luc2P cells; assay: Cellular mechanistic assay: 786-O HRE-luc2P reporter assay; assay type: cell-based; details: Homo sapiens, 786-0, 48 h, read-out: HRE-luc2P reporter assay IC50
Procedure: This reporter assay was designed to monitor binding of the HIF2α-HIF1β complex to specific DNA fragment called hypoxia response element (HRE) in physiologically relevant cell line. […] HRE is present in promoters of various genes regulated by hypoxia inducible factors. […] As a result, this reporter assay allows monitoring of HIF2α-HIF1β activity by determining the activity of produced luciferase. Cell culture is performed in RPMI media supplemented with 10% FBS, Sodium Pyruvate, Penicillin/Streptomycin, Glutamine, 200 μg/ml Hygromycin Gold.
The assay was performed in 384 well white, opaque microtiterplate with transparent bottom (Greiner Bio-one, Frickenhausen). […] 50 μl of cell suspension (2000 cells) per well were dispensed in microtiter plates and incubated over night at 37° C. in a 5% CO2 incubator. Compounds were added with Labcyte Echo dispenser (fc 0.2% DMSO, 9 concentrations dilution raw starting at 10 μM). Plates were incubated for 48 h at 37° C. in a 5% CO2 incubator. After this 45 μl of pre-warmed ONE-Glo™ EX Reagent were added per well. Plates were placed on an orbital shaker at 1200 rpm for 3 minutes. Plates were sealed and luminescence was measured a Tecan Spark 20M microplate reader (end-point measurement with 0.1 second reading time). Values were normalized to DMSO ctrl and wells without cells (only medium ctrl). Decrease in luminescence directly correlates with inhibition of HIF2α activity. IC50 values and % effect values were calculated by GraphPad Prism.

HIF2a (240-350)-G = target: T2, HIF2a (240-350)-G (Homo sapiens, UniProt Q99814); assay: ITC; assay type: binding
T2 construct: The protein, HIF2a (240-350)-G, was prepared by recombinant overexpression; made in house
T2 sequence (Q99814 240-350): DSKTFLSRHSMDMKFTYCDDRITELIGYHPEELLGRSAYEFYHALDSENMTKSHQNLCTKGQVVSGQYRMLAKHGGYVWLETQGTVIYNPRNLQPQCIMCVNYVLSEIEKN
Procedure: ITC measurements were performed with a VP-ITC microcalorimeter from MicroCal/Malvern (UK). For all titration experiments the protein and the respective compounds were formulated in 30 mM HEPES buffer pH 7.5, 150 mM NaCl and 5 mM ß-mercaptoethanol. The protein, HIF2a (240-350)-G, was prepared by recombinant overexpression and multistep chromatography purification. Compounds were used from concentrated DMSO stock solutions. The final protein concentration in the injection syringe was 100 μM. Ligand stock solutions of 10 mM in DMSO were diluted to 10 μM concentrations with buffer and loaded into the sample cell. All buffers were adjusted to a final concentration of 1% (v/v) DMSO. Both, the titrate and titrant solutions were degassed prior to loading the calorimeter cell and injection syringe. […] The integrated heat data were fit with a one-site binding model to determine the apparent values for affinity, enthalpy and stoichiometry of binding.

T1 sequence (Q99814 240-350): as above

IC50 [1] [nM] | IC50 [2] [nM] | Kd (HIF2a (240-350)-G) [nM] | SMILES
> 1000 |  |  | CS(=O)(=O)c1sc(-c2cncc(C#N)c2)c2c1[C@H](O)C(F)(F)CC2 [Example 59a, 5-[(4S)-5,5-difluoro-4-hydroxy-3-methanesulfonyl-4,5,6,7-tetrahydro-2-benzothiophen-1-yl]pyridine-3-carbonitrile]
> 1000 |  |  | CS(=O)(=O)c1sc(-c2cncc(F)c2)c2c1[C@H](O)C(F)(F)CC2 [Example 58a, (4S)-5,5-difluoro-1-(5-fluoropyridin-3-yl)-3-methanesulfonyl-4,5,6,7-tetrahydro-2-benzothiophen-4-ol]
50 to 1000 | > 1000 |  | CS(=O)(=O)c1sc(-c2cncc(C(F)(F)F)c2)c2c1[C@H](O)C(F)(F)CC2 [Example 62a, (4S)-5,5-difluoro-3-methanesulfonyl-1-[5-(trifluoromethyl)pyridin-3-yl]-4,5,6,7-tetrahydro-2-benzothiophen-4-ol]
> 1000 | > 1000 |  | Cn1nc(-c2sc(S(C)(=O)=O)c3c2CCC(F)(F)[C@H]3O)cc1C#N [Example 54a, 3-[(4S)-5,5-difluoro-4-hydroxy-3-methanesulfonyl-4,5,6,7-tetrahydro-2-benzothiophen-1-yl]-1-methyl-1H-pyrazole-5-carbonitrile]
> 1000 |  | > 1000 | CS(=O)(=O)c1sc(-c2cccc(F)c2)c2c1[C@H](O)C(F)(F)C2 [Example 28a, (4S)-5,5-difluoro-1-(3-fluorophenyl)-3-methanesulfonyl-4H,6H-cyclopenta[c]thiophen-4-ol]
> 1000 |  | > 1000 | CS(=O)(=O)c1sc(-c2ccccc2)c2c1[C@H](O)C(F)(F)C2 [Example 25a, (4S)-5,5-difluoro-3-methanesulfonyl-1-phenyl-4H,6H-cyclopenta[c]thiophen-4-ol]
> 1000 |  |  | Cc1cncc(-c2sc(S(C)(=O)=O)c3c2CCC(F)(F)[C@H]3O)c1 [Example 57a, (4S)-5,5-difluoro-3-methanesulfonyl-1-(5-methylpyridin-3-yl)-4,5,6,7-tetrahydro-2-benzothiophen-4-ol]
> 1000 | > 1000 |  | Cn1nccc1-c1sc(S(C)(=O)=O)c2c1CC(F)(F)[C@H]2O [Example 47a, (4S)-5,5-difluoro-3-methanesulfonyl-1-(1-methyl-1H-pyrazol-5-yl)-4H,5H,6H-cyclopenta[c]thiophen-4-ol]
50 to 1000 | > 1000 |  | CS(=O)(=O)c1sc(-c2cncc(Cl)c2)c2c1[C@H](O)C(F)(F)CC2 [Example 56a, (4S)-1-(5-chloropyridin-3-yl)-5,5-difluoro-3-methanesulfonyl-4,5,6,7-tetrahydro-2-benzothiophen-4-ol]
> 1000 |  |  | Cc1cc(-c2sc(S(C)(=O)=O)c3c2CC(F)(F)[C@H]3O)n(C)n1 [Example 49a, (4S)-1-(1,3-dimethyl-1H-pyrazol-5-yl)-5,5-difluoro-3-methanesulfonyl-4H,5H,6H-cyclopenta[c]thiophen-4-ol]
> 1000 | > 1000 | > 1000 | CS(=O)(=O)c1sc(-c2cccc(F)c2)c2c1[C@H](O)C(F)(F)CC2 [Example 37a, (4S)-5,5-difluoro-1-(3-fluorophenyl)-3-methanesulfonyl-6,7-dihydro-4H-2-benzothiophen-4-ol]
> 1000 |  |  | Cn1cc(-c2sc(S(C)(=O)=O)c3c2CC(F)(F)[C@H]3O)cn1 [Example 35a, (4S)-5,5-difluoro-3-methanesulfonyl-1-(1-methyl-1H-pyrazol-4-yl)-4H,5H,6H-cyclopenta[c]thiophen-4-ol]
50 to 1000 | > 1000 |  | CS(=O)(=O)c1sc(-c2cnc(Cl)c(F)c2)c2c1[C@H](O)C(F)(F)CC2 [Example 61a, (4S)-1-(6-chloro-5-fluoropyridin-3-yl)-5,5-difluoro-3-methanesulfonyl-4,5,6,7-tetrahydro-2-benzothiophen-4-ol]
> 1000 |  | > 1000 | CS(=O)(=O)c1sc(-c2ccccc2F)c2c1[C@H](O)C(F)(F)C2 [Example 27a, (4S)-5,5-difluoro-1-(2-fluorophenyl)-3-methanesulfonyl-4H,6H-cyclopenta[c]thiophen-4-ol]
> 1000 | > 1000 |  | Cn1nc(C(F)(F)F)cc1-c1sc(S(C)(=O)=O)c2c1CC(F)(F)[C@H]2O [Example 48a, (4S)-5,5-difluoro-3-methanesulfonyl-1-[1-methyl-3-(trifluoromethyl)-1H-pyrazol-5-yl]-4H,5H,6H-cyclopenta[c]thiophen-4-ol]
> 1000 |  |  | Cc1cc(-c2sc(S(C)(=O)=O)c3c2CCC(F)(F)[C@H]3O)n(C)n1 [Example 50a, (4S)-1-(1,3-dimethyl-1H-pyrazol-5-yl)-5,5-difluoro-3-methanesulfonyl-4,5,6,7-tetrahydro-2-benzothiophen-4-ol]
< 50 | > 1000 | 50 to 1000 | CS(=O)(=O)c1sc(-c2cc(F)nc(Cl)c2)c2c1[C@H](O)C(F)(F)CC2 [Example 63a, (4S)-1-(2-chloro-6-fluoropyridin-4-yl)-5,5-difluoro-3-methanesulfonyl-4,5,6,7-tetrahydro-2-benzothiophen-4-ol]
> 1000 |  |  | Cc1nn(C)cc1-c1sc(S(C)(=O)=O)c2c1CCC(F)(F)[C@H]2O [Example 39a, (4S)-1-(1,3-dimethyl-1H-pyrazol-4-yI)-5,5-difluoro-3-methanesulfonyl-4,5,6,7-tetrahydro-2-benzothiophen-4-ol]
> 1000 |  |  | Cn1cc(-c2sc(S(C)(=O)=O)c3c2CCC(F)(F)[C@H]3O)cn1 [Example 40a, (4S)-5,5-difluoro-3-methanesulfonyl-1-(1-methyl-1H-pyrazol-4-yl)-4,5,6,7-tetrahydro-2-benzothiophen-4-ol]
> 1000 |  |  | Cn1nc(C#N)cc1-c1sc(S(C)(=O)=O)c2c1CCC(F)(F)[C@H]2O [Example 51a, 5-[(4S)-5,5-difluoro-4-hydroxy-3-methanesulfonyl-4,5,6,7-tetrahydro-2-benzothiophen-1-yl]-1-methyl-1H-pyrazole-3-carbonitrile]
> 1000 | > 1000 |  | Cn1nc(C(F)(F)F)cc1-c1sc(S(C)(=O)=O)c2c1CCC(F)(F)[C@H]2O [Example 46a, (4S)-5,5-difluoro-3-methanesulfonyl-1-[1-methyl-3-(trifluoromethyl)-1H-pyrazol-5-yl]-4,5,6,7-tetrahydro-2-benzothiophen-4-ol]
> 1000 | > 1000 |  | CS(=O)(=O)c1sc(-c2ccccc2)c2c1[C@H](O)CCC2 [Example 36a, (4R)-3-methanesulfonyl-1-phenyl-4,5,6,7-tetrahydro-2-benzothiophen-4-ol]
> 1000 |  |  | COc1ncc(-c2sc(S(C)(=O)=O)c3c2CCC(F)(F)[C@H]3O)cc1Cl [Example 65a, (4S)-1-(5-chloro-6-methoxypyridin-3-yl)-5,5-difluoro-3-methanesulfonyl-4,5,6,7-tetrahydro-2-benzothiophen-4-ol]
